Test results as given in patent US7579324B2, “Conjugates of biologically active compounds, methods for their preparation and use, formulation and pharmaceutical applications thereof” (c-a-i-r biosciences GmbH, priority 2002, dated 2009).

What was measured:
E. coli (DH5α) = assay: Antibiotic activity testing (TC50, dilution assay); format: cell-based; conditions: concentration that inhibits 50% of growth, turbidity OD600
Method: The TC50 or MIC procedure for antibiotic sensitivity testing involves an antibiotic dilution assay, which can be performed in microtitre plates. A series of twofold dilutions of each antibiotic are made in the wells, and then all wells are inoculated with a standard amount of the same test organism. After incubation, growth in the presence of the various antibiotics is observed by measuring turbidity.
Bacteria: B. pumilus and E. coli (DH5α)
Bacterial cultures are initiated from the plates for 2 to 3 weeks. After this time period bacteria are streaked out on new plates from the backups stored at −80° C. Due to the lack of resistance of the bacteria, new cultures are not to be initiated from an old plate or any liquid cultures derived from old plates.
Growth medium (GM)(per liter): 10 g Bacto-tryptone, 5 g Bacto-yeast extract, 6 g HEPES (25 mM), 5.4 g NaCl, pH 7.3
Compound stocks 10 or 100 mM in DMSO stored at −20° C.
1. Grow B.pumilus from an LB agar plate in a flask (max. 10% volume) up to about 50 ml in growth medium (GM)
2. Dilute overnight suspension 1:10 in GM
3. Determine OD600 of diluted bacterial suspension
4. Dilute bacterial suspension in GM to an OD600 of 0.03-0.04. (6 ml/plate)
5. Add 200 μl GM to the outer wells (Row A, Row H, Column 1, Column 12)
6. Add 100 μl GM to each well starting from C2, row 3.
7. Controls: Wells B2-B4 growth control. Wells B6-B8 blank. Row C growth inhibition control. • 7.1. To wells B2-B4 add: 96 μl GM, 4 μl DMSO, and 100 μl bacterial suspension adjusted to an OD600 of 0.03-0.04. • 7.2. To wells B6-B8 add: 196 μl GM and 4 μl DMSO • 7.3. Dilute a 10 mM COMPOUND 43 (positive control) stock to 800 μM (120 μl/plate) in GM. Add 100 μl of 800 μM COMPOUND 43 solution to well C2.
8. Samples • 8.1. Dilute the 10 or 100 mM stock solutions to 800 μM (250 μl/plate) in GM. • 8.2. Add 100 μl of 800 μM sample in duplicates to wells D2/E2 resp. F2/G2. • 8.3. 2-fold serial dilution of all samples and Azithromycin • 8.3.1. Rows C-G, Columns 2: Mix and transfer 100 μl from each row to Column 3, and continue until column 11. […]
11. Determine OD600 on plate reader.

HeLa or JURKAT cells = assay: Cytotoxicity assay (Alamar Blue) with guanosine rescue; format: cell-based
Method: HeLa cells (DSMZ, ACC 57) and Jurkat cells (DSMZ, ACC 282) in exponential growth phase are exposed for 3 days to test compounds. The number of surviving cells is then determined by the Alamar Blue assay (Serotec Inc.). This assay incorporates a fluorometric growth indicator based on detection of metabolic activity. Specifically, the system incorporates an oxidation-reduction indicator that fluoresces in response to chemical reduction of the growth medium resulting from cell growth. As cells grow in culture, innate metabolic activity results in a chemical reduction of the immediate surrounding environment. Continued growth maintains a reduced environment while inhibition of growth maintains an oxidized environment. […] Fluorescence is monitored at 560 nm (Exc.) and 590 nm Em.
HeLa cells (1×10^3) or JURKAT cells (1×10^3) are plated in 100 μl MEM medium (with Earle's salt; Biochrom KG) containing 10% FBS, 2 mM L-glutamine, and non-essential animo acids in 96-well plates and incubated at 37° C. and 5% CO2 atmosphere. […] The fluorescence is then measured as described above and the LD50 is determined based on a sigmoidal dose response regression. […] Any toxicity still detected can then be ascribed either to other biological effects of the of T—L—C conjugate of mycophenolic acid, or is due to the very high intracellular concentration of mycophenolic acid, following concentrative uptake into the cell.

Structure (SMILES)	TC50 in E. coli (E. coli (DH5α)) [µM]	effect in the presence of guanosine (HeLa or JURKAT cells; 50 μM guanosine in culture medium)	IC50 (HeLa or JURKAT cells; normal culture conditions, HeLa or JURKAT) [µM]
CC[C@H]1OC(=O)[C@H](C)[C@@H](O[C@H]2C[C@@](C)(OC)[C@@H](O)[C@H](C)O2)[C@H](C)[C@@H](O[C@@H]2O[C@H](C)C[C@H](N(C)C)[C@H]2O)[C@](C)(O)C[C@@H](C)CN(C)[C@H](C)[C@@H](O)[C@]1(C)O [COMPOUND 43, 9a-aza-9a-methyl-9-deoxo-9a-homoerythromycin A, reference compound]	2.3		
CC[C@H]1OC(=O)[C@H](C)C(=O)[C@H](C)[C@@H](O[C@@H]2O[C@H](C)C[C@H](N(C)C)[C@H]2OC(=O)Cc2ccccc2Nc2c(Cl)cccc2Cl)[C@](C)(O)C[C@@H](C)CN(C)[C@H](C)[C@@H](O)[C@]1(C)O [COMPOUND 53]	>50		
CC[C@H]1OC(=O)[C@H](C)[C@@H](O[C@H]2C[C@@](C)(OC)[C@@H](O)[C@H](C)O2)[C@H](C)[C@@H](O[C@@H]2O[C@H](C)CC(N(C)C(=O)CN(C)CCO)[C@H]2O)[C@](C)(O)C[C@@H](C)CN(C)[C@H](C)[C@@H](O)[C@]1(C)O (some centres unmarked) [COMPOUND 45]	>50		
COc1c(C)c2c(c(O)c1C/C=C(\C)CCC(=O)O)C(=O)OC2 [Mycophenolic acid]		completely removed	< 2
